Results on 37 sequences are retold here after the OligoGym collection.

In one series the target is DGAT2. Particulars: ASO.
In the next series the target is APOL1. Particulars: ASO.

Values joined by “and” are separate entries in the source; they are usually repeats but may differ in a detail not shown here. Equal values may be shown once. After the bases stand the sugars from the 5' end (letter, count) and the backbone: PS all phosphorothioate, else s phosphorothioate and o phosphodiester by linkage. Methylation of C is not given here. e = 2'-O-(2-methoxyethyl) (MOE); k = constrained ethyl (cEt); d = 2'-deoxy (DNA)

For the sequence “AGGACACCTGGAGCTGCGGC (sugars e5 d10 e5, PS)”, the target mRNA inhibition in the series with DGAT2 (HepG2, 2.5 µM) stood at 42%; with DGAT2 (HepG2, 10 µM), 84%.
With “AGGACAGGGCAGACACACCT (sugars e5 d10 e5, PS)”, the target mRNA inhibition in the series with DGAT2 (HepG2, 0.12 µM) came to 44%.
The sequence “AGGACCCACTGGAGCACTGA (sugars e2 d13 e5, PS)” came in with a target mRNA inhibition with DGAT2 (HepG2, 0.12 µM) of 75%.
For “AGGACCCCGGAGTAGGCGGC (sugars e5 d10 e5, PS)”, the target mRNA inhibition with DGAT2 (HepG2, 0.12 µM) was 52% and 76%; with DGAT2 (HepG2, 2.5 µM) it was 60%; with DGAT2 (HepG2, 10 µM) it was 92%.
Regarding “AGGAGCCCTCCTCGAAGATC (sugars e5 d10 e5, PS)”, in the series with DGAT2 (HepG2, 0.12 µM), the target mRNA inhibition was found to be 31%.
As to “AGGCACAGAAAAGTGAGGCT (sugars e5 d10 e5, PS)”, the target mRNA inhibition with DGAT2 (HepG2, 2.5 µM) came to 75%; with DGAT2 (HepG2, 10 µM), 67%.
Consider “AGGCATATACAAAAGTCTGA (sugars e5 d10 e5, PS)”, for which the target mRNA inhibition with DGAT2 (HepG2, 0.12 µM) was 38%.
The sequence “AGGCATGGAGCTCAGAGACT (sugars e3 d14 e3, PS)” registered a target mRNA inhibition with DGAT2 (HepG2, 0.12 µM) of 66%.
In the case of “AGGCCAAGGACAGAGGTTCA (sugars e5 d10 e5, PS)”, the target mRNA inhibition is 60% and 51% in the series with DGAT2 (HepG2, 2.5 µM); 81% and 87% in the series with DGAT2 (HepG2, 10 µM).
“AGGGAGGCCTTGCACTTACC (sugars e5 d10 e5, PS)” yielded a target mRNA inhibition with DGAT2 (HepG2, 0.12 µM) of 13%.
Turning to “AGGTTGTGTGTCTTCACCAG (sugars e3 d14 e3, PS)”, the target mRNA inhibition with DGAT2 (HepG2, 0.12 µM) was determined as 61%.
“AGTTTCGGACCCACTGTGAC (sugars e5 d10 e5, PS)” registered a target mRNA inhibition with DGAT2 (HepG2, 0.12 µM) of 63%.
With “ATAATTTCTTTTAAATAACC (sugars e5 d10 e5, PS)”, the target mRNA inhibition in the series with DGAT2 (HepG2, 0.12 µM) amounted to 0%.
In turn, “ATCCAGTGCCCCATCTCCCA (sugars e5 d10 e5, PS)” had a target mRNA inhibition in the series with DGAT2 (HepG2, 0.12 µM) of 16%.
With “ATCCGGACTGAATGTCACCT (sugars e5 d10 e5, PS)”, the target mRNA inhibition with DGAT2 (HepG2, 2.5 µM) is 80% and 72%; with DGAT2 (HepG2, 10 µM), 84% and 91%.
For “ATGAGGGTCTTCATGGCTGA (sugars e5 d10 e5, PS)”, in the series with DGAT2 (HepG2, 0.12 µM), the target mRNA inhibition is 7%.
Same read-out and setting: in the case of “ATGGAGCTCAGAGACTCAGC (sugars e2 d13 e5, PS)” it was 73%.
“ATGTATTTCTGGAACTTCTT (sugars e5 d10 e5, PS)” showed a target mRNA inhibition with DGAT2 (HepG2, 0.12 µM) of 45%.
Still for that read-out and setting: the value for “ATTAGCAGTAGCTCAGGAGA (sugars e5 d10 e5, PS)” was 48%; that for “ATTGCCACTCCCATTCTTTG (sugars e2 d13 e5, PS)” was 53%; that for “ATTGCCACTCCCATTCTTTG (sugars e3 d14 e3, PS)” was 40%.
On to “ATTTCTTATCTTCAATCCTC (sugars e5 d10 e5, PS)”, for which the target mRNA inhibition in the series with DGAT2 (HepG2, 2.5 µM) amounted to 57%; with DGAT2 (HepG2, 10 µM), 95%.
Consider “CAAAAACATGACAGCCAGGG (sugars e5 d10 e5, PS)”, for which the target mRNA inhibition was 85% and 75% in the series with DGAT2 (HepG2, 2.5 µM); 96% and 90% with DGAT2 (HepG2, 10 µM).
In the case of “CAATGCCAATGCCTAGGTCA (sugars e5 d10 e5, PS)”, the target mRNA inhibition was 70% with DGAT2 (HepG2, 2.5 µM) and 90% with DGAT2 (HepG2, 10 µM).
“CAATGGGAATGGTATCGCAC (sugars e5 d10 e5, PS)”: the target mRNA inhibition with DGAT2 (HepG2, 2.5 µM) is 68% and 62%; with DGAT2 (HepG2, 10 µM), 93% and 85%.
As for “CACCATTTTCACAAGGAGAA (sugars e5 d10 e5, PS)”, the target mRNA inhibition stood at 86% in the series with DGAT2 (HepG2, 2.5 µM) and 82% in the series with DGAT2 (HepG2, 10 µM).
On to “CACTGGAGCACTGAGATGAC (sugars e5 d10 e5, PS)”, for which the target mRNA inhibition in the series with DGAT2 (HepG2, 0.12 µM) is 27% and 48%.
For the sequence “CAGAATGAGACAGGCAGCCC (sugars e5 d10 e5, PS)”, the target mRNA inhibition turned out to be 37% in the series with DGAT2 (HepG2, 2.5 µM) and 82% in the series with DGAT2 (HepG2, 10 µM).
In the series with DGAT2 (HepG2, 0.12 µM), “CAGAGTTATCCTCAATTCAC (sugars e5 d10 e5, PS)” showed a target mRNA inhibition of 34%.
For the sequence “CAGATCTTCATTACATGATT (sugars e5 d10 e5, PS)”, the target mRNA inhibition with DGAT2 (HepG2, 2.5 µM) stood at 71%; with DGAT2 (HepG2, 10 µM) it was 89%.
For the sequence “CAGCAGATGATGTCCTGCCT (sugars e5 d10 e5, PS)”, the target mRNA inhibition with DGAT2 (HepG2, 2.5 µM) was determined as 66%; in the series with DGAT2 (HepG2, 10 µM) it was 88%.
Take “CAGCAGGTTGTGTGTCTTCA (sugars e5 d10 e5, PS)”: the target mRNA inhibition is 66% and 75% with DGAT2 (HepG2, 0.12 µM); 16% and 39% with DGAT2 (HepG2, 2.5 µM); 63% and 79% with DGAT2 (HepG2, 10 µM).
Take “CAGCAGTCTGCCTGATTCCC (sugars e5 d10 e5, PS)”: the target mRNA inhibition in the series with DGAT2 (HepG2, 2.5 µM) amounted to 66%; with DGAT2 (HepG2, 10 µM) it was 94%.
In turn, “CAGCCAAGTGAAGTAGAGCA (sugars e5 d10 e5, PS)” registered a target mRNA inhibition with DGAT2 (HepG2, 0.12 µM) of 41%.
“CAGCCTGGACAAGTCCTGCC (sugars e2 d13 e5, PS)” displayed a target mRNA inhibition with DGAT2 (HepG2, 0.12 µM) of 72%.
Regarding “CAGGAAGGCACAGAAAAGTG (sugars e5 d10 e5, PS)”, the target mRNA inhibition with DGAT2 (HepG2, 0.12 µM) turned out to be 28%.
Consider “TTTTGTAAGTGCAACC (sugars kkkddddkekeddddd, PS)”, for which the target mRNA inhibition in the series with APOL1 (A431, 0.0156 µM) came to 21%; in the series with APOL1 (A431, 0.0625 µM), 67%; with APOL1 (A431, 0.25 µM), 89%; in the series with APOL1 (A431, 1 µM), 97%; with APOL1 (A431, 2 µM), 98%.
